In a melting point compilation (Tetko et al.; mined from patent text by program, amines drawn as free bases though some values may be those of a salt) one finds melting point data, which are given here for 36 molecules.

In the case of `CN(CCF)c1nc2cc(NC(=O)c3c(C(=O)N4CC(F)C4)cnn3C)ccn2n1`, the melting point fell in the range of 233 to 236 °C.

`CC(C)(C)OC(=O)NCCNC(=O)c1cc(Cl)ccn1` returned a melting point of 120 to 123 °C.

In turn, `CC(=O)Nc1ccc(S(=O)(=O)Nc2nnc(S(N)(=O)=O)s2)cc1` returned a melting point of 280 to 281 °C.

Turning to `CCCCCc1cc2c(nc(O)n2Cc2cccnc2)c(N)n1`, the melting point lay within 243 to 245 °C.

`O=C(NCCN1CCC(C(=O)c2ccc(F)cc2)CC1)c1cccnc1` displayed a melting point of 118 °C.

The molecule `CNC(=O)Cc1ccc(N)c(N)c1` had a melting point of 136 to 138 °C.

The molecule `COc1c(-c2ccc3cc(NS(C)(=O)=O)ccc3c2)cc(-n2ccc(=O)[nH]c2=O)cc1C(F)(F)C(F)(F)F` had a melting point of 162 to 165 °C.

With `COc1cc(Nc2nccc(-c3ccc(N)s3)n2)cc(OC)c1OC`, the melting point was in the range of 161 to 162 °C.

Molecule `CCCNc1ccc(-c2nc(=O)c3ccccc3s2)cn1` registered a melting point of 210 to 211 °C.

Regarding `O=C(O)c1cn(-c2ccc(F)cc2)c2c(F)c(N3Cc4ccc(Cl)cc4C3)c(F)cc2c1=O`, the melting point was above 300 °C.

In the case of `O=c1c2ccccc2oc2cccn12`, the melting point is 129 to 130 °C.

Regarding `COC(=O)c1ccc(OCC(O)COc2ccc(Cl)cc2)cc1` (stereo unspecified), the melting point lay in the range of 88 to 90 °C.

In turn, `COCc1ncc(C(=O)OC)n1C` showed a melting point of 74 to 77 °C.

Molecule `Cc1c(NC(=O)c2ccc(-c3ccc(Cl)s3)cc2)ccc2cc(CN3CCCCC3)cnc12` showed a melting point of 212 to 213 °C.

Consider `CCNc1nc(-c2ccc(NC(=O)OCc3cccnc3)cc2)ccc1C(=O)NC`, for which the melting point is 234 to 235 °C.

As to `C[C@H]([C@@H](C)P(=S)(c1ccccc1)c1ccccc1)P(=S)(c1ccccc1)c1ccccc1`, the melting point was in the range of 213 to 214 °C.

Take `CCn1nc(N)nc1NCCCOc1cccc(CN(C)C)c1`: the melting point fell in the range of 104 to 105 °C.

`ON=C(c1ccccc1)C(O)(c1ccccc1)c1ccccc1`: the melting point is 150 to 152 °C.

Molecule `CC1(c2ccccc2)OCC(OCc2ccccc2)CO1` (stereo unspecified) had a melting point of 87 to 88 °C.

Take `CC(C)N1CCN(C(=O)c2cc([N+](=O)[O-])cc(C(F)(F)F)c2)CC1`: the melting point amounted to 70.7 °C.

Turning to `CC1(C)SC2C(NC(c3ccccc3)(c3ccccc3)c3ccccc3)C(=O)N2C1C#N` (stereo unspecified), the melting point was 116 to 119 °C.

In turn, `CCCCCCCCCCCCCCc1ccc(C(=O)OCC)[nH]1` returned a melting point of 60 to 63 °C.

Regarding `CC(=O)Oc1ccc(C#C[Si](C)(C)C)cc1`, the melting point worked out at 45 °C.

The molecule `COc1ccc2c(c1)CCC1C3=CC(C)=C(OC(C)=O)C3(C)CCC21` (stereo unspecified) had a melting point of 129 to 130 °C.

The molecule `CC(C)c1cccc(C(C)C)c1NC(=O)CC(=O)C1(c2ccccc2)CCCC1` registered a melting point of 145 to 147 °C.

`CC(C)=CCOC(=O)c1cnn(-c2c(Cl)cc(Cl)cc2Cl)c1N` registered a melting point of 102 to 105 °C.

Molecule `COc1cc(O)c(-c2ccccc2)nn1` yielded a melting point of 204 to 209 °C.

The molecule `CCCCCCCCCCCCC(C(=O)O)C(O)(CC(=O)O)C(=O)O` (stereo unspecified) had a melting point of 75.4 to 76.1 °C.

For `Cc1ccccc1NC(=O)NCC1(c2ccccc2)CCCCC1`, the melting point lay within 171 to 174 °C.

`O=C1CCC(C(=O)OC(C(=O)c2ccccc2)c2ccccc2)N1` (stereo unspecified) came in with a melting point of 123 to 131 °C.

Regarding `CCc1nnc2c3c(c(Cl)nn12)CCCC3`, the melting point is 93 to 94 °C.

`COCCc1cc(N)n2nc(SC)c(S(=O)(=O)c3ccccc3)c2n1` registered a melting point of 186 to 187 °C.

`COCOc1cc(CO)n(Cc2ccc(Cl)cc2Cl)n1` had a melting point of 82 to 83 °C.

`CCOC(=O)COc1ccc(Oc2ccc([N+](=O)[O-])cc2)c(Cl)c1Cl` displayed a melting point of 90 to 91 °C.

With `N=c1[nH]c2ccncc2c2nc(-c3ccco3)nn12`, the melting point is 320 to 321 °C.

As for `CC(C)Oc1cc(CCCOc2cc(CCC(=O)O)n(C)n2)cc(COc2ccc(Cl)cc2Cl)c1`, the melting point lay in the range of 116 to 120 °C.
